Measured values reported in paper PMC12807552, “The Synthesis of BODIPY-TKI Conjugates and Investigation of Their Ability to Target the Epidermal Growth Factor Receptor” (Targets (Basel), 2023).

Target: EGFR kinase domain (epidermal growth factor receptor) (Homo sapiens, UniProt P00533)
Experiment: biochemical

Sequence of EGFR kinase domain (epidermal growth factor receptor) (P00533 695-1210): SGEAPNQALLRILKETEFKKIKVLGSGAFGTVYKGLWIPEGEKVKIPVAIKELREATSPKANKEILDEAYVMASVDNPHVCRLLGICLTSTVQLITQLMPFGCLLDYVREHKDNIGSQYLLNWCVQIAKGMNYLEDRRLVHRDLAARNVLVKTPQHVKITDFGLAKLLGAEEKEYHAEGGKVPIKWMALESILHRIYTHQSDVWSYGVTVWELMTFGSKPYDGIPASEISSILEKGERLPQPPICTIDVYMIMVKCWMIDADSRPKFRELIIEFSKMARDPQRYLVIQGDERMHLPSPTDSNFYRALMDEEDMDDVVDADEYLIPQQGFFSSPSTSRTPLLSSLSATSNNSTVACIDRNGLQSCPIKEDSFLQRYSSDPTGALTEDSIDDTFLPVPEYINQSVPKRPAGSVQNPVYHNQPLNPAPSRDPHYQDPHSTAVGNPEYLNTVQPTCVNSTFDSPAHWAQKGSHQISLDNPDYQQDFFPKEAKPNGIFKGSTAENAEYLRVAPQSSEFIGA

In the case of `COCCOc1cc2ncnc(Nc3cccc(-c4cn(CCOCCOCCOCCNC(=S)Nc5ccc(-c6c7ccccc7c7n6[B-](F)(F)[N+]6=C(c8ccc(N=C=S)cc8)c8ccccc8C6=C7c6cc(OC)cc(OC)c6)cc5)nn4)c3)c2cc1OCCOC` [compound 5, BODIPY-monoTKI], the Kd is reported as 8.04 µM.
